“And” between values parts separate entries of the source, which are not always exact repeats. Identical values can stand only once. Like-named read-outs stand apart in the source and are kept apart here.
How the values were obtained:
[1] = molecular target: T1, human muscarinic M4 receptor (Homo sapiens, UniProt P08173); assay: Alphascreen Surefire phospho-ERK1/2 functional assay, M4; format: cell-based; conditions: for EC50 / % Emax cf. ACh (M4) / pEC50 M4: CHO cells stably expressing human M4; for EC50 / pEC50 M4: agonist 5 min, 37° C.; for EC50: read-out: pEC50 M4 (converted); for Emax: CHO
T1 construct: expressed in transfected cells
T1 sequence (P08173 1-479): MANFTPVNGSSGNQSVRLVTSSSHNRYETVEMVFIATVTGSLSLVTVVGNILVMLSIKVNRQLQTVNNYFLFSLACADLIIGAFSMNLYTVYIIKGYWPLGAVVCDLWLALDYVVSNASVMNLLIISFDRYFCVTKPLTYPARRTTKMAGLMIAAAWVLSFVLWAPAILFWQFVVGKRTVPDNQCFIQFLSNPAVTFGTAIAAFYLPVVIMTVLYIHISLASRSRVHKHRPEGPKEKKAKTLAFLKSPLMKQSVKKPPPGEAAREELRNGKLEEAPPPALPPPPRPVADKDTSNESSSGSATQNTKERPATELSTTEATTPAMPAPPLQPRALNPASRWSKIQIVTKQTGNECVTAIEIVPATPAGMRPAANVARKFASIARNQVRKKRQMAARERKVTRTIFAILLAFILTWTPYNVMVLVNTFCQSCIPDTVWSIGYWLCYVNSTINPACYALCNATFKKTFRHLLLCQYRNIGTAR
Description: (§1) ERK1/2 phosphorylation is a downstream consequence of both Gq/11 and Gi/o protein coupled receptor activation, making it highly suitable for the assessment of M1, M3 (Gq/11 coupled) and M2, M4 receptors (Gi/o coupled), rather than using different assay formats for different receptor subtypes. CHO cells stably expressing the human muscarinic M1, M2, M3 or M4 receptor were plated (25K/well) onto 96-well tissue culture plates in MEM-alpha+10% dialysed FBS. Once adhered, cells were serum-starved overnight. Agonist stimulation was performed by the addition of 5 μL agonist to the cells for 5 min (37° C.). Media was removed and 50 μL of lysis buffer added. After 15 min, a 4 μL sample was transferred to 384-well plate and 7 μL of detection mixture added.

[2] = molecular target: T2, human muscarinic M1 receptor (Homo sapiens, UniProt P11229); assay: Alphascreen Surefire phospho-ERK1/2 functional assay, M1; format: cell-based; conditions: for EC50 / % Emax cf. ACh (M1) / pEC50 M1: CHO cells stably expressing human M1; for EC50 / pEC50 M1: agonist 5 min, 37° C.; for EC50: read-out: pEC50 M1 (converted); for Emax: CHO, read-out: % Emax cf. ACh (M1), CHO cells stably expressing human M1; for Emax / % Emax cf. ACh (M1): relative to ACh
T2 sequence (P11229 1-460): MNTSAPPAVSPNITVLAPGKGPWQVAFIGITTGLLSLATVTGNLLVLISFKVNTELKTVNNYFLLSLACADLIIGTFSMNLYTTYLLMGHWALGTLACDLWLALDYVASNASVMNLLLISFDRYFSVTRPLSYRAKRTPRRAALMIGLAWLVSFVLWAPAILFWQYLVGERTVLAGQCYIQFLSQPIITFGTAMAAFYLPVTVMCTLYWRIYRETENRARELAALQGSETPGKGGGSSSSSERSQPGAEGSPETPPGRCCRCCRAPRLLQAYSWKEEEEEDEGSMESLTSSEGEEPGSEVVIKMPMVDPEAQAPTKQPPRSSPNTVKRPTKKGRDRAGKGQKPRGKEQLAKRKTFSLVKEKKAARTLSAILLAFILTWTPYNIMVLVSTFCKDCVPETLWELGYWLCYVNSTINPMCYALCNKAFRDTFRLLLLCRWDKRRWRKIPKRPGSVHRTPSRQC
Description: as §1

[3] = read-out: % Emax cf. ACh (M4), CHO cells stably expressing human M4, relative to ACh

Compound | EC50 [1] [nM] | Emax [1, 3] [%] | EC50 [2] [nM] | Emax [2] [%] | % Emax cf. ACh (M1) [2] | % Emax cf. ACh (M4) ([1]; relative to ACh) | pEC50 M4 [1] | pEC50 M1 [2] | Emax ([1]; read-out: % Emax cf. ACh (M4)) [%]
CCOC(=O)N1CCC2(CC(N3CC4C(C3)C4N(CC)CC(F)(F)F)C2)C1 (mixture of isomers) [2-27 Mixture of isomers] | 1480 | 32 | > 20000 | 20 |  |  |  |  | 
CCOC(=O)N1CCC2(CC(N3CC4C(C3)C4C(CC)=NOC)C2)C1 (single isomer, unassigned) [2-25 Isomer 2] | 437 | 35 | 1290 |  | 37% |  |  |  | 
CCOC(=O)N1CCC2(CC(N3CC4C(C3)C4OC(C)c3ccccc3)C2)C1 (single isomer, unassigned) [2-28 Isomer 1] | > 20000 |  | 575 |  | 58% | 21% |  |  | 
CCOC(=O)N1C2CCC1CC(N1CC3C(C1)C3C(=O)N(C)CC)C2 (single isomer, unassigned; isomer 1) [7-2 Isomer 1] |  |  |  |  | 116% | 14% | < 4.70 | 6.11 | 
CCOC(=O)N1C2CCC1CC(N1CC3C(C1)C3C(=O)N(CC)CC)C2 (single isomer, unassigned; isomer 1) [7-3 Isomer 1] |  |  |  |  | 123% | 45% | 5.58 | 6.78 | 
CCOC(=O)N1C2CCCC1CC(N1CC3C(C1)C3C(=O)N(CC)CC)C2 (single isomer, unassigned; isomer 1) [9-2 Isomer 1] |  |  |  |  | 102% | 41% | 5.87 | 6.56 | 
CCN(CC)C(=O)C1C2CN(C3CC4CCCC(C3)N4C(=O)OC)CC21 (single isomer, unassigned; isomer 1) [9-3 Isomer 1] |  |  |  |  | 106% | 60% | 6.12 | 6.40 | 
CCOC(=O)N1C2COCC1CC(N1CC3C(C1)C3C(=O)N(C)CC)C2 (single isomer, unassigned; isomer 1) [10-1 Isomer 1] |  |  |  |  | 110% and 78% | 24% and 15% | < 4.70 | 5.94 and 5.76 | 
COC(=O)N1C2COCC1CC(N1CC3C(C1)C3C(=O)N(C)C(C)C)C2 (single isomer, unassigned; isomer 1) [10-5 Isomer 1] |  |  |  |  | 99% | 81% | 5.91 | 6.30 | 
CCN(C(=O)C1C2CN(C3CC4COCC(C3)N4C(=O)OC)CC21)C(C)C (single isomer, unassigned; isomer 1) [10-7 Isomer 1] |  |  |  |  | 99% | 69% | 6.79 | 7.42 | 
CCOC(=O)N1C2COCC1CC(N1CC3C(C1)C3C(=O)N(C)C1CC1)C2 (single isomer, unassigned; isomer 1) [10-8 Isomer 1] |  |  |  |  | 116% | 47% | 4.84 | 5.99 | 
CCOC(=O)C1C2CN(C3CC4CCC(C3)N4C(=O)OCC)CC21 (single isomer, unassigned; isomer 2) [7-1 Isomer 2] |  |  |  |  | 83% | 62% | 5.80 | 5.67 | 
CCOC(=O)N1C2CCC1CC(N1CC3C(C1)C3C(=O)N(C)CC)C2 (single isomer, unassigned; isomer 2) [7-2 Isomer 2] |  |  |  |  | 113% | 53% | 4.96 | 6.66 | 
CCOC(=O)N1C2CCC1CC(N1CC3C(CN(CC)C(C)=O)C3C1)C2 (single isomer, unassigned; isomer 2) [7-5 Isomer 2] |  |  |  |  | 23% | 38% | 6.13 | < 4.70 | 
CCOC(=O)N1C2CCC1CC(N1CC3C(C1)C3c1csc(C)n1)C2 (single isomer, unassigned; isomer 2) [7-6 Isomer 2] |  |  |  |  | 56% | 73% | 6.21 | 5.94 | 
CCOC(=O)N1C2CCCC1CC(N1CC3C(C1)C3C(=O)N(C)CC)C2 (single isomer, unassigned; isomer 2) [9-1 Isomer 2] |  |  |  |  | 93% | 24% | < 4.70 | 6.01 | 
CCN(CC)C(=O)C1C2CN(C3CC4COCC(C3)N4C(=O)OC)CC21 (single isomer, unassigned; isomer 2) [10-3 Isomer 2] |  |  |  |  | 81% | 25% | < 4.70 | 5.75 | 
COC(=O)N1C2COCC1CC(N1CC3C(C1)C3C(=O)N(C)C(C)C)C2 (single isomer, unassigned; isomer 2) [10-5 Isomer 2] |  |  |  |  | 101% | 90% | 4.90 | 5.66 | 
CCN(C(=O)C1C2CN(C3CC4COCC(C3)N4C(=O)OC)CC21)C(C)C (single isomer, unassigned; isomer 2) [10-7 Isomer 2] |  |  |  |  | 100% | 64% | 6.23 | 6.83 | 
CCOC(=O)N1C2COCC1CC(N1CC3C(C1)C3C(=O)N(C)C1CC1)C2 (single isomer, unassigned; isomer 2) [10-8 Isomer 2] |  |  |  |  | 85% | 32% | 5.67 | 5.65 | 
CCOC(=O)N1C2COCC1CC(N1CC3C(C1)C3C(=O)N(CC)C1CC1)C2 (single isomer, unassigned; isomer 2) [10-9 Isomer 2] |  |  |  |  | 105% | 38% | 5.47 | 6.57 | 
COC(=O)N1C2COCC1CC(N1CC3C(C1)C3C(=O)N1CCCCC1)C2 (single isomer, unassigned; isomer 2) [10-12 Isomer 2] |  |  |  |  | 99% | 86% | 4.85 | 5.99 | 
CC(=O)OCC[N+](C)(C)C [ACh, acetylcholine, reference compound] |  |  |  |  |  |  |  |  | 109
CCOC(=O)N1CC2(CC(N3C[C@@H]4[C@H](C3)[C@H]4C(=O)N(CC)CC)C2)C1 [Example 1-2, ethyl 6-[(1R,5S,6r)-6-(diethylcarbamoyl)-3-azabicyclo[3.1.0]hex-3-yl]-2-azaspiro[3.3]heptane-2-carboxylate] | 955 | 81 | 132 | 110 |  |  |  |  | 
CCOC(=O)N1CC2(CC(N3C[C@@H]4[C@H](C3)[C@H]4c3csc(C)n3)C2)C1 [Example 1-4, ethyl 6-[(1R,5S,6r)-6-(2-methyl-1,3-thiazol-4-yl)-3-azabicyclo[3.1.0]hex-3-yl]-2-azaspiro[3.3]heptane-2-carboxylate] | 617 | 47 | 4570 | 55 |  |  |  |  | 
CCOC(=O)N1CCC(N2C[C@@H]3[C@H](C2)[C@H]3C(=O)N(CC)CC)CC1 [Example 4-1] | 708 | 35 | 234 | 84 |  |  |  |  | 

From patent publication US10329278B2, “Pharmaceutical compounds” (Heptares Therapeutics Limited, priority 2017, dated 2019)
